According to patent US12636299B2, “Terpenoid derivatives, pharmaceutical preparations containing these derivatives and their use in neuroprotection” (UNIVERZITA PALACKEHO V OLOMOUCI, priority 2020, dated 2026):

Legend:
[1] = tested on: SH-SY5Y human neuroblastoma cell line; assay: Cytotoxicity, Calcein AM viability assay on neuron-like SH-SY5Y cells; type: cell-based
Method: The SH-SY5Y human neuroblastoma cell line obtained from ECACC (The European Collection of Authenticated Cell Cultures) was cultivated in Dulbecco's modified Eagle's Medium and Ham's F12 Nutrient Mixture (DMEM:F-12, 1:1), supplemented with 10% fetal bovine serum (FBS) and 1% penicillin and streptomycin at 37° C. in a humidified atmosphere 5% CO2, 95% humidity in passage limit up to ECACC+20. The assay was performed in 96-well microplate with 7000 SH-SY5Y cells per well. After 48 h, old DMEM/F12 media was removed by fresh media containing tested compounds at 0.1, 1 and 10 μM concentrations for 24 h. Glial cell line A-172 purchased from ATCC and grown in same conditions as SH-SY5Y cell line. A-172 cells were seeded in density 2000 cells per well and growing medium was replaced by treatment medium containing tested compounds in 0.1, 1 and 10 μM concentration; or in higher concentrations for R-LA or NAC positive controls for 48 hours. All tested compounds dissolved in DMSO were added into the medium. The maximum concentration of DMSO in media was kept below 0.1% (v/v). The cell viability was measured by Calcein AM (1 mg/ml ThermoFisher) viability assay. Solution of Calcein AM in PBS (0.75 μM) was pipetted to cells and incubated for 50 min. After that the fluorescence was measured at 488/517 nm (excitation/emission) using microplate reader Infinite M200 (TECAN). Calcein AM assay is based on the dye-intracellular-esterase cleavage of non-fluorescent dye (Calcein AM) by living cells to fluorescent dye (Calcein), while dying cells lose such ability. The values in Table 2 show the % of viability compared to control for all tested compounds. The results from DMSO control (medium with DMSO, <0.1% (v/v)) was postulated as 100% viability (see the first line of Table 2).

glial A-172 cells [2] = assay: Cytotoxicity, Calcein AM viability assay on glial A-172 cells; type: cell-based, human; conditions: NAC at 1000 μM
Method: The assay was performed in 96-well microplate with 7000 SH-SY5Y cells per well. After 48 h, old DMEM/F12 media was removed by fresh media containing tested compounds at 0.1, 1 and 10 μM concentrations for 24 h. Glial cell line A-172 purchased from ATCC and grown in same conditions as SH-SY5Y cell line. […] All tested compounds dissolved in DMSO were added into the medium. The maximum concentration of DMSO in media was kept below 0.1% (v/v). The cell viability was measured by Calcein AM (1 mg/ml ThermoFisher) viability assay. Solution of Calcein AM in PBS (0.75 μM) was pipetted to cells and incubated for 50 min. After that the fluorescence was measured at 488/517 nm (excitation/emission) using microplate reader Infinite M200 (TECAN). Calcein AM assay is based on the dye-intracellular-esterase cleavage of non-fluorescent dye (Calcein AM) by living cells to fluorescent dye (Calcein), while dying cells lose such ability.

[3] = tested on: human neuroblastoma cell line SH-SY5Y; assay: Viability of differentiated SH-SY5Y in salsolinol-induced model of PD (Calcein AM); type: cell-based; conditions: difference between 800 μM SAL and co-treatment group means, 24 hours
Method: Similarly, as in previous “Safety test”, the SH-SY5Y cells were seeded at density 7000 cells/well. After 48 h differentiation, old 1% DMEM/F12 media was replaced by fresh media containing 800 μM salsolinol (SAL) and tested compounds in 0.1, 1 and 10 μM concentrations. N-acetylcystein were chosen as positive control. After 24 hours, the cell viability was measured by Calcein AM viability assay. The values in Table 2 show % of viability of all tested compounds relative to control. The control (medium with DMSO, <0.1% (v/v)) was postulated as 100% viability (see the first line of the table), while the SAL exposure lead to decrease of viability to 65.4±0.97%.

caspase-3,7 activity = assay: Caspase-3,7 activity in salsolinol-induced model of PD on SH-SY5Y (Ac-DEVD-AMC); type: cell-based, human; conditions: Homo sapiens, SH-SY5Y, percentages of control (800 μM SAL = 100), 24 hour co-treatment, read-out: Caspase-3,7 activity (% of reduction)
Method: Similarly, as shown in previous assay, cells grew on 96 multiwell plates at density 20000 cells per well underwent differentiation and treatment procedure for salsolinol model. After 24 hour co-treatment with salsolinol, caspase-3,7 (casp-3,7) activity as marker of apoptosis was quantified by its substrate Ac-DEVD-AMC according to Carrasco et al. (2003, BioTechniques, 34, 1064-1067). In this model, overall casp-3,7 activity induced by 800 μM SAL was consider as 100% and thus the reduction in casp-3,7 was observed after treatment with the protective terpenoid derivatives. As shown in Table 4 and FIG. 2, 800 μM SAL induced 2.9-fold increase.

[4] = tested on: human neuron-like SH-SY5Y cells; assay: 3NPA-induced model of Huntington's disease, neuron-like SH-SY5Y cells; type: cell-based; conditions: 10 μM (NAC), difference to 20 mM 3NPA, 48 h
Method: (§1) Before application of toxin 3-nitropropionic acid (3NPA) for mimicking Huntington's disease, the 3NPA was dissolved in water and neutralized by sodium hydroxide. SH-SY5Y cells were seeded in the same density and differentiated by the procedure shown above. Astrocyte cells A-172 were also seeded as described in previous section. Both cell lines were co-treated by 3NPA (20 mM for SH-SY5Y cells, […]) and tested compounds at 0.1, 1 and 10 μM concentration for 48 h.

astrocyte A-172 cells = assay: 3NPA-induced model of Huntington's disease, astrocyte A-172 cells; type: cell-based, human; conditions: difference to 10 mM 3NPA, 48 h
Method: as §1

[5] = tested on: superoxide radical formation; assay: Oxidative stress (superoxide radical formation, DHE) in 3NPA-induced model on SH-SY5Y; type: cell-based, human; conditions: 20 mM 3NPA = 100%, 24 hours
Method: Similarly, to previous assay, cells grown on 96-multiwell plates at density 20000 cells per well underwent differentiation and treatment procedure with 3-nitropropionic acid (3NPA) in this model. After 24 hours of co-treatment with 20 mM 3NPA, superoxide radical's formation as a marker of oxidative stress was quantified by dihydroethidium according to Kim et al. (2017, J. Med. Food, 20, 140-151). Briefly, neuron-like SH-SY5Y cells were centrifuged at 500 g for 5 min and 30 s, then media were replaced by 10 μM DHE PBS solution and kept at room temperature for 30 min. After that, DHE was read at 500 nm/580 nm (excitation/emission) by Infinite M200 Pro (Tecan) microplate reader. DHE is cell permeable dye which is selective for superoxide radical detection. Overall oxidative stress achieved by 20 mM 3NPA was consider as 100% and thus the reduction in superoxide radical's formation (OS reducing effect) was determined. As shown in Table 6 and FIG. 2, 20 mM 3NPA induced 2.7-fold increase in superoxide radical's formation.

glial A-172 cells [6] = assay: Cytotoxicity, Calcein AM viability assay on glial A-172 cells; type: cell-based, human; conditions: 48 hours
[7] = tested on: human neuron-like SH-SY5Y cells; assay: 3NPA-induced model of Huntington's disease, neuron-like SH-SY5Y cells; type: cell-based; conditions: difference to 20 mM 3NPA, 48 h

CC(=O)N[C@@H](CS)C(=O)O [NAC, N-acetyl cysteine, reference compound]
viability, percentage of DMSO control ([1]; 10 μM (NAC)): 92.7%
viability, percentage of DMSO control ([1]; 100 μM (NAC)): 97.5%
viability, percentage of DMSO control ([1]; 1000 μM (NAC)): 101.5%
effect on viability of astrocytes, in words (glial A-172 cells [2]): slight decrease in percentage of living cells
Neuroprotective effect (% of control) ([3]; 10 μM (NAC)): N/A (N/A = no protection)
Neuroprotective effect (% of control) ([3]; 100 μM (NAC)): N/A (N/A = no protection)
Neuroprotective effect (% of control) ([3]; 1000 μM (NAC)): 16.15 % of control
activity at 100 µM (caspase-3,7 activity; 100 μM (NAC)): 60.4%
activity at 1000 µM (caspase-3,7 activity; 1000 μM (NAC)): 55.2%
Neuro-protective effect (% of control) [4]: N/A (N/A = no protection)
Astro-protective effect (% of control) (astrocyte A-172 cells; A-172, column head 0.5 μM (positive controls)): N/A (N/A = no protection)
Astro-protective effect (% of control) (astrocyte A-172 cells; A-172, column head 5 μM (positive controls)): N/A (N/A = no protection)
Astro-protective effect (% of control) (astrocyte A-172 cells; A-172, column head 50 μM (positive controls)): N/A (N/A = no protection)
Superoxide radical formation (oxidative stress) % ([5]; 10 μM (NAC)): 79.6%
Superoxide radical formation (oxidative stress) % ([5]; 100 μM (NAC)): 79.7%
Superoxide radical formation (oxidative stress) % ([5]; 1000 μM (NAC)): 48.5%
viability, percentage of DMSO control (glial A-172 cells [6]; 10 μM (NAC)): 102.9%
viability, percentage of DMSO control (glial A-172 cells [6]; 100 μM (NAC)): 96.6%
viability, percentage of DMSO control (glial A-172 cells [6]; 1000 μM (NAC)): 83.0%
Neuro-protective effect (% of control) ([7]; 100 μM (NAC)): 51.35 % of control
Neuro-protective effect (% of control) ([7]; 1000 μM (NAC)): 65.72 % of control
